Measurements as given in ChEMBL document CHEMBL1909046, “DrugMatrix in vitro pharmacology data”.

What was measured:
[1] = molecular target: Beta-3 adrenergic receptor (Homo sapiens, UniProt P13945); assay: DRUGMATRIX: Adrenergic beta3 radioligand binding (ligand: [125I] Cyanopindolol); format: cell membranes, HEK293, Membrane; details: Not Active = under 50% inhibition at 10 µM
[2] = molecular target: Aldo-keto reductase family 1 member B1 (Rattus norvegicus, UniProt P07943); assay: biochemical; format: tissue-based, Lens of camera-type eye;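 note: inhibition of aldose reductase enzyme activity, measured with DL-glyceraldehyde as the substrate; in other assays of this panel Not Active means under 50% inhibition at 10 µM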
[3] = DRUGMATRIX: Tumor Necrosis Factor (TNF), Non-Selective radioligand binding (ligand: [125I] TNF-alpha); format: cell membranes, Membrane; details: u-937; Not Active = under 50% inhibition at 10 µM
[4] = molecular target: T1, Cholecystokinin receptor type A (Homo sapiens, UniProt P32238); format: cell membranes, Membrane; details: 1321-n1; note: in other assays of this panel Not Active means under 50% inhibition at 10 µM
T1 sequence (P32238 whole entry): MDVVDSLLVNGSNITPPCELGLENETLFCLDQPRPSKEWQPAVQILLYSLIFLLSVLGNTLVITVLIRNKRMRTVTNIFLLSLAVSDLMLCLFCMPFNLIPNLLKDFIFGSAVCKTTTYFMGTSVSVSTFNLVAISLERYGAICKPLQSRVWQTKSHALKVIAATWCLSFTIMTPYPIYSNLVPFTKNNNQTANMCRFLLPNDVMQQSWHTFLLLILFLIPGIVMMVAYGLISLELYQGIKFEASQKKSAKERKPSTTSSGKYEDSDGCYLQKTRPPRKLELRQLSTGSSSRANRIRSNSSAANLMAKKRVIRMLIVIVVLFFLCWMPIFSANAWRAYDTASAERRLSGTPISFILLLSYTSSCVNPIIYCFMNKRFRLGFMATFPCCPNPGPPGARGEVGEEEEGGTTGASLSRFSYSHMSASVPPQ

[5] = molecular target: Mitogen-activated protein kinase 3 (Homo sapiens, UniProt P27361); assay: DRUGMATRIX: Protein Serine/Threonine Kinase, ERK1 enzyme inhibition (substrate: Myelin Basic Protein); design: species or system Escherichia coli; details: Not Active = under 50% inhibition at 10 µM
Chain of Mitogen-activated protein kinase 3 (P27361 whole entry): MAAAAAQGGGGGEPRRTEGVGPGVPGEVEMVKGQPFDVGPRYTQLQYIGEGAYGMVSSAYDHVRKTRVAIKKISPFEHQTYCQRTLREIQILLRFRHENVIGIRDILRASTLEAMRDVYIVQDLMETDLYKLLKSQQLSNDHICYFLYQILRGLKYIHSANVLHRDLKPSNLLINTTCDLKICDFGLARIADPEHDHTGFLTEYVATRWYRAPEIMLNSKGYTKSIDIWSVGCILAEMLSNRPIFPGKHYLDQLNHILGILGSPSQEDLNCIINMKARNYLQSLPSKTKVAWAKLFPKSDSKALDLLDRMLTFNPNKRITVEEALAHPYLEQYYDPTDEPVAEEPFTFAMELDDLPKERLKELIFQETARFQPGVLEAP

[6] = molecular target: T2, Adenosine receptor A1 (Homo sapiens, UniProt P30542); format: cell membranes, CHO, Membrane;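 note: radioligand binding assay at the adenosine A1 receptor, with DPCPX serving as the labelled ligand; in other assays of this panel Not Active means under 50% inhibition at 10 µM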
T2 sequence (P30542 whole entry): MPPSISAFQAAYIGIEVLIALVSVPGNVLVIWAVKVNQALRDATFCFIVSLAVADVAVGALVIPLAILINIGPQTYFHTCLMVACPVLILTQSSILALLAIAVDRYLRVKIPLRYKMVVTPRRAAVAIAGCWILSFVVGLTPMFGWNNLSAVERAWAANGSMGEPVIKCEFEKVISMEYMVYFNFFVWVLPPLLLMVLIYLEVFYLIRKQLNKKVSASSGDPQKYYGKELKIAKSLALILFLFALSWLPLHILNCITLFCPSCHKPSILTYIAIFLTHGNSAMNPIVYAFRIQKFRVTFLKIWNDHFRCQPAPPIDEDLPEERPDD

[7] = molecular target: Cytochrome P450 2D6 (Homo sapiens, UniProt P10635); details: bti-tn-5b1-4; note: in other assays of this panel Not Active means under 50% inhibition at 10 µM
Chain of Cytochrome P450 2D6 (P10635 whole entry): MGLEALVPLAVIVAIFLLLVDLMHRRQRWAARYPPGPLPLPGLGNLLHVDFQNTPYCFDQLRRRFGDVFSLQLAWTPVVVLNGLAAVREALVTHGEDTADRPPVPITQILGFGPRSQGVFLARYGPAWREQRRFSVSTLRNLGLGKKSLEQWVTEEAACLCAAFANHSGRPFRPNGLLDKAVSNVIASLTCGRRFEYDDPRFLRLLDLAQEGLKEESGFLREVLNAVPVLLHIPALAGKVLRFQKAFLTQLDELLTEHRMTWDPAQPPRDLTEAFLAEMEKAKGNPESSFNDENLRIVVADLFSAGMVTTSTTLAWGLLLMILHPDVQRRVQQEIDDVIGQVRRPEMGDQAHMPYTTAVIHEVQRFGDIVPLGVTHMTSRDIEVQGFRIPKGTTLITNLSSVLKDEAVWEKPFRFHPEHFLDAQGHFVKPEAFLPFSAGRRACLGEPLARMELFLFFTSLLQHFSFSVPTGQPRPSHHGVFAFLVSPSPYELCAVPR

Chain of Beta-3 adrenergic receptor (P13945 whole entry): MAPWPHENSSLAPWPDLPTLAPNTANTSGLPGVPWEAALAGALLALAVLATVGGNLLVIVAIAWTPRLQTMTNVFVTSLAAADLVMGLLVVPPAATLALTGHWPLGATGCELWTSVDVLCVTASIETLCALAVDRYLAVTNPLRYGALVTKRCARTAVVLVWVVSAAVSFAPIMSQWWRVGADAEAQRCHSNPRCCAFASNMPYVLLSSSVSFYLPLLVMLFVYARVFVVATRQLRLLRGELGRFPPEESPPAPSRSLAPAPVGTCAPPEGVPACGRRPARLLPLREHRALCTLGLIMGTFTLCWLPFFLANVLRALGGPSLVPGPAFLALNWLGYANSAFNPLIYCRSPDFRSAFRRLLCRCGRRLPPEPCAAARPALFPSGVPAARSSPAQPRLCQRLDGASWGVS

Structure (SMILES) | IC50 ([1]; hek293) | IC50 [2] | IC50 [3] | Ki [3] | IC50 [4] | IC50 [5] | IC50 ([6]; cho) | IC50 [7] | Ki [7] | IC50 ([6]; read-out: IC50) [nM] | Ki ([6]; read-out: Ki) [nM] | IC50 ([2]; read-out: IC50) [nM] | IC50 ([1]; read-out: IC50) [µM] | Ki ([1]; read-out: Ki) [µM] | IC50 ([5]; read-out: IC50) [µM]
CC(C)(C)NC(=O)[C@@H]1C[C@@H]2CCCC[C@@H]2CN1C[C@@H](O)[C@H](Cc1ccccc1)NC(=O)[C@H](CC(N)=O)NC(=O)c1ccc2ccccc2n1 | Not Active | Not Active | Not Active | Not Active | Not Active | Not Active | Not Active | Not Active | Not Active | – | – | – | – | – | –
CC(=O)[C@@]1(O)CC[C@H]2[C@@H]3C[C@H](C)C4=CC(=O)CC[C@]4(C)[C@H]3CC[C@@]21C | Not Active | Not Active | Not Active | Not Active | Not Active | Not Active | Not Active | Not Active | Not Active | – | – | – | – | – | –
N[C@@H](Cc1ccc(N(CCCl)CCCl)cc1)C(=O)O | Not Active | Not Active | Not Active | Not Active | Not Active | Not Active | Not Active | Not Active | Not Active | – | – | – | – | – | –
CCCCc1oc2ccccc2c1C(=O)c1cc(I)c(OCCN(CC)CC)c(I)c1 [AMIODARONE] | – | Not Active | – | – | Not Active | Not Active | Not Active | – | – | – | – | – | – | – | –
OCCN(CCO)c1nc(N2CCCCC2)c2nc(N(CCO)CCO)nc(N3CCCCC3)c2n1 [DIPYRIDAMOLE] | Not Active | Not Active | Not Active | Not Active | Not Active | Not Active | Not Active | Not Active | Not Active | – | – | – | – | – | –
Cc1oncc1C(=O)Nc1ccc(C(F)(F)F)cc1 [LEFLUNOMIDE] | Not Active | Not Active | Not Active | Not Active | Not Active | Not Active | Not Active | Not Active | Not Active | – | – | – | – | – | –
c1ccc([C@H]2CN3CCSC3=N2)cc1 [LEVAMISOLE] | Not Active | Not Active | Not Active | Not Active | Not Active | Not Active | Not Active | Not Active | Not Active | – | – | – | – | – | –
N[C@@H](Cc1ccc(O)c(O)c1)C(=O)O [LEVODOPA] | Not Active | Not Active | Not Active | Not Active | Not Active | Not Active | Not Active | Not Active | Not Active | – | – | – | – | – | –
N[C@@H](Cc1cc(I)c(Oc2ccc(O)c(I)c2)c(I)c1)C(=O)O [LIOTHYRONINE] | Not Active | Not Active | – | – | Not Active | Not Active | – | Not Active | Not Active | 411 | 240 | – | – | – | –
O=NN(CCCl)C(=O)NC1CCCCC1 [LOMUSTINE] | Not Active | Not Active | Not Active | Not Active | Not Active | Not Active | Not Active | Not Active | Not Active | – | – | – | – | – | –
CCOC(=O)N1CCC(=C2c3ccc(Cl)cc3CCc3cccnc32)CC1 [LORATADINE] | Not Active | Not Active | Not Active | Not Active | Not Active | Not Active | Not Active | – | – | – | – | – | – | – | –
Cn1ccnc1S [METHIMAZOLE] | Not Active | Not Active | Not Active | Not Active | Not Active | Not Active | Not Active | Not Active | Not Active | – | – | – | – | – | –
CC[C@@H](CO)NC(=O)[C@@H]1C=C2c3cccc4[nH]cc(c34)C[C@H]2N(C)C1 [METHYLERGONOVINE] | Not Active | Not Active | Not Active | Not Active | Not Active | Not Active | Not Active | – | – | – | – | – | – | – | –
COc1nc(C)nc(Cl)c1NC1=NCCN1 [MOXONIDINE] | Not Active | Not Active | Not Active | Not Active | Not Active | Not Active | Not Active | Not Active | Not Active | – | – | – | – | – | –
COc1c(C)c2c(c(O)c1C/C=C(\C)CCC(=O)O)C(=O)OC2 [MYCOPHENOLIC ACID] | Not Active | Not Active | Not Active | Not Active | Not Active | Not Active | Not Active | Not Active | Not Active | – | – | – | – | – | –
O=c1ncn2nc(Sc3ccc(F)cc3F)ccc2c1-c1c(Cl)cccc1Cl [NEFLAMAPIMOD] | Not Active | Not Active | Not Active | Not Active | Not Active | Not Active | Not Active | Not Active | Not Active | – | – | – | – | – | –
CN1CCN(CCCN2c3ccccc3Sc3ccc(Cl)cc32)CC1 [PROCHLORPERAZINE] | Not Active | Not Active | – | – | Not Active | Not Active | Not Active | – | – | – | – | – | – | – | –
CO[C@H]1/C=C/O[C@@]2(C)Oc3c(C)c(O)c4c(O)c(c(/C=N/N5CCN(C)CC5)c(O)c4c3C2=O)NC(=O)/C(C)=C\C=C\[C@H](C)[C@H](O)[C@@H](C)[C@@H](O)[C@@H](C)[C@H](OC(C)=O)[C@@H]1C [RIFAMPIN] | Not Active | Not Active | Not Active | Not Active | Not Active | Not Active | Not Active | Not Active | Not Active | – | – | – | – | – | –
Nc1nc2ccc(OC(F)(F)F)cc2s1 [RILUZOLE] | Not Active | Not Active | Not Active | Not Active | Not Active | Not Active | Not Active | – | – | – | – | – | – | – | –
Cc1nc2n(c(=O)c1CCN1CCC(c3noc4cc(F)ccc34)CC1)CCCC2 [RISPERIDONE] | Not Active | Not Active | – | – | Not Active | Not Active | Not Active | – | – | – | – | – | – | – | –
C=CCC1(C(C)CCC)C(=O)NC(=O)NC1=O (configuration not stated) [SECOBARBITAL] | Not Active | Not Active | Not Active | Not Active | Not Active | Not Active | Not Active | Not Active | Not Active | – | – | – | – | – | –
C[C@@H]1CN(c2c(F)c(N)c3c(=O)c(C(=O)O)cn(C4CC4)c3c2F)C[C@H](C)N1 [SPARFLOXACIN] | Not Active | Not Active | Not Active | Not Active | Not Active | Not Active | Not Active | Not Active | Not Active | – | – | – | – | – | –
Cc1noc(NS(=O)(=O)c2ccc(N)cc2)c1C [SULFISOXAZOLE] | Not Active | Not Active | Not Active | Not Active | Not Active | Not Active | Not Active | Not Active | Not Active | – | – | – | – | – | –
CSc1ccc(/C=C2/C(C)=C(CC(=O)O)c3cc(F)ccc32)cc1 [SULINDAC SULFIDE] | Not Active | – | Not Active | Not Active | Not Active | Not Active | Not Active | Not Active | Not Active | – | – | 84 | – | – | –
Nc1c2c(nc3ccccc13)CCCC2 [TACRINE] | Not Active | Not Active | Not Active | Not Active | Not Active | Not Active | Not Active | – | – | – | – | – | – | – | –
CC/C(=C(\c1ccccc1)c1ccc(OCCN(C)C)cc1)c1ccccc1 [TAMOXIFEN] | – | Not Active | – | – | Not Active | Not Active | – | – | – | – | – | – | 7.7 | 5.78 | –
CC(C)N1CCN(c2ccc(OCC3COC(Cn4cncn4)(c4ccc(Cl)cc4Cl)O3)cc2)CC1 (configuration not stated) [TERCONAZOLE] | – | Not Active | – | – | Not Active | Not Active | Not Active | Not Active | Not Active | – | – | – | – | – | –
Nc1nc2nc[nH]c2c(=S)[nH]1 [THIOGUANINE] | Not Active | Not Active | Not Active | Not Active | Not Active | – | Not Active | Not Active | Not Active | – | – | – | – | – | 5.52
Cc1cccc(N(C)C(=S)Oc2ccc3ccccc3c2)c1 [TOLNAFTATE] | Not Active | Not Active | Not Active | Not Active | Not Active | Not Active | Not Active | Not Active | Not Active | – | – | – | – | – | –
